We go through eleven molecules from PubChem BioAssay AID270 (DTP/NCI, 2004).

“And” between values parts separate entries of the source, which are not always exact repeats. Identical values can stand only once. Results filed as inconclusive are left out.

The assay has as its system BDF1 mice, s.c. Lewis lung carcinoma, T/C %. The experiment in a line: NCI In Vivo Anticancer Drug Screen. Data for tumor model Lewis Lung Carcinoma (subcutaneous) in B6D2F1 (BDF1) mice. In outline: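 Transplanted tumors grown in mice; compound vs vehicle dosing; endpoint survival or tumor size; ratio T/C.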
[1] abbreviates: endpoint: median survival time, dose: 25.0 mg/kg/injection, schedule: Q01DX009 (ip), vehicle: saline with Tween-80, higher = longer survival.
Setting [2] is: endpoint: median survival time, dose: 50.0 mg/kg/injection, schedule: Q01DX009 (ip), vehicle: saline with Tween-80, higher = longer survival.
The mark [3] stands for this setting: endpoint: median survival time, dose: 100.0 mg/kg/injection, schedule: Q01DX009 (ip), vehicle: saline with Tween-80, higher = longer survival.

In the case of `ClCCN(CCCl)CC(Cl)COc1cccc2ccccc12` (stereo unspecified), the T/C by setting is: (endpoint: median survival time, dose: 1.25 mg/kg/injection, schedule: Q01DX009 (ip), vehicle: Klucel (hydroxypropylcellulose) (HPC), higher = longer survival) 92 % of control and 103 % of control; (endpoint: median survival time, dose: 2.5 mg/kg/injection, schedule: Q01DX009 (ip), vehicle: Klucel (hydroxypropylcellulose) (HPC), higher = longer survival) 96 % of control and 103 % of control; (endpoint: median survival time, dose: 5.0 mg/kg/injection, schedule: Q01DX009 (ip), vehicle: Klucel (hydroxypropylcellulose) (HPC), higher = longer survival) 97 % of control and 101 % of control; (endpoint: median survival time, dose: 10.0 mg/kg/injection, schedule: Q01DX009 (ip), vehicle: Klucel (hydroxypropylcellulose) (HPC), higher = longer survival) 92 % of control and 110 % of control; (endpoint: median survival time, dose: 20.0 mg/kg/injection, schedule: Q01DX009 (ip), vehicle: Klucel (hydroxypropylcellulose) (HPC), higher = longer survival) 96 % of control and 106 % of control; (endpoint: median survival time, dose: 40.0 mg/kg/injection, schedule: Q01DX009 (ip), vehicle: Klucel (hydroxypropylcellulose) (HPC), higher = longer survival) 97 % of control.
Consider `CCN(CC)c1nc(N(CC)CC)nc(N(CC)CC)n1`, for which the T/C is, setting by setting: under setting [1], 95 % of control; under setting [2], 105 % of control; under setting [3], 95 % of control; (endpoint: median survival time, dose: 200.0 mg/kg/injection, schedule: Q01DX009 (ip), vehicle: saline with Tween-80, higher = longer survival) 104 % of control; (endpoint: median survival time, dose: 400.0 mg/kg/injection, schedule: Q01DX009 (ip), vehicle: saline with Tween-80, higher = longer survival) 89 % of control.
For the molecule `CC1CN1P(=S)(N1CC1C)N1CC1C` (stereo unspecified), the T/C by setting is: (endpoint: mean tumor weight, dose: 9.0 mg/kg/injection, schedule: Q01DX011 (ip), vehicle: carboxymethylcellulose (CMC), higher = larger tumour) 87 % of control; (endpoint: mean tumor weight, dose: 17.5 mg/kg/injection, schedule: Q01DX011 (ip), vehicle: carboxymethylcellulose (CMC), higher = larger tumour) 72 % of control; (endpoint: mean tumor weight, dose: 53.0 mg/kg/injection, schedule: Q01DX011 (ip), vehicle: carboxymethylcellulose (CMC), higher = larger tumour) 23 % of control.
As for `O=NN(CCCl)C(=O)Nc1ccc(Cl)c(Cl)c1`, the T/C runs as follows: (endpoint: median survival time, dose: 8.0 mg/kg/injection, schedule: Q01DX009 (ip), vehicle: saline with Tween-80, higher = longer survival) 116 % of control; (endpoint: median survival time, dose: 16.0 mg/kg/injection, schedule: Q01DX009 (ip), vehicle: saline with Tween-80, higher = longer survival) 106 % of control.
Turning to `CCOC(=O)NC`, the T/C was 87 % of control (endpoint: mean tumor weight, dose: 177.0 mg/kg/injection, schedule: Q01DX011 (ip), vehicle: saline, higher = larger tumour); 83 % of control (endpoint: mean tumor weight, dose: 266.0 mg/kg/injection, schedule: Q01DX011 (ip), vehicle: saline, higher = larger tumour); 62 % of control (endpoint: mean tumor weight, dose: 400.0 mg/kg/injection, schedule: Q01DX011 (ip), vehicle: saline, higher = larger tumour); 44 % of control (endpoint: mean tumor weight, dose: 600.0 mg/kg/injection, schedule: Q01DX011 (ip), vehicle: saline, higher = larger tumour).
As for `CCCCn1cnc2c(SC)ncnc21`, the T/C is, setting by setting: under setting [1], 89 % of control; under setting [2], 94 % of control; under setting [3], 94 % of control.
For `O=NN(CCCl)C(=O)N[C@H]1CCC[C@@H](C(=O)O)C1`, the T/C was 88 % of control (endpoint: median survival time, dose: 14.0 mg/kg/injection, schedule: Q01DX001 (ip), vehicle: Klucel (hydroxypropylcellulose) (HPC), higher = longer survival) and 93 % of control (endpoint: median survival time, dose: 32.0 mg/kg/injection, schedule: Q01DX001 (ip), vehicle: Klucel (hydroxypropylcellulose) (HPC), higher = longer survival).
Take `Cc1ccc(N=NN(C)C)cc1`: the T/C reads like this: (endpoint: mean tumor weight, dose: 15.0 mg/kg/injection, schedule: Q01DX011 (ip), vehicle: other, higher = larger tumour) 67 % of control; (endpoint: mean tumor weight, dose: 60.0 mg/kg/injection, schedule: Q01DX011 (ip), vehicle: other, higher = larger tumour) 57 % of control.
Turning to `COC12C(COC(=O)NCCO)C3=C(C(=O)C(C)=C(N)C3=O)N1CC1NC12` (stereo unspecified), the T/C by setting is: (endpoint: median survival time, dose: 3.13 mg/kg/injection, schedule: Q01DX009 (ip), vehicle: Klucel (hydroxypropylcellulose) (HPC), higher = longer survival) 94 % of control; (endpoint: median survival time, dose: 6.25 mg/kg/injection, schedule: Q01DX009 (ip), vehicle: Klucel (hydroxypropylcellulose) (HPC), higher = longer survival) 92 % of control; (endpoint: median survival time, dose: 25.0 mg/kg/injection, schedule: Q01DX009 (ip), vehicle: Klucel (hydroxypropylcellulose) (HPC), higher = longer survival) 94 % of control.
For `O=NN(CCCl)C(=O)NC1CCS(=O)(=O)C1` (stereo unspecified) (tested in a mixture with another compound), the T/C reads like this: (endpoint: median survival time, dose: 11.0 mg/kg/injection, schedule: Q01DX001 (ip), vehicle: saline with Tween-80, higher = longer survival) 88 % of control; (endpoint: median survival time, dose: 16.0 mg/kg/injection, schedule: Q01DX001 (ip), vehicle: saline with Tween-80, higher = longer survival) 100 % of control; (endpoint: median survival time, dose: 30.0 mg/kg/injection, schedule: Q01DX001 (ip), vehicle: saline with Tween-80, higher = longer survival) 92 % of control.
With `C[C@]12CC[C@H](O)CC1=CC[C@@H]1[C@@H]2CC[C@]2(C)c3nc4ccccc4cc3C[C@@H]12`, the T/C reads like this: (endpoint: mean tumor weight, dose: 0.2 mg/kg/injection, schedule: Q01DX011 (sc), vehicle: steriod suspending solution, higher = larger tumour) 104 % of control; (endpoint: mean tumor weight, dose: 0.4 mg/kg/injection, schedule: Q01DX011 (sc), vehicle: steriod suspending solution, higher = larger tumour) 87 % of control; (endpoint: mean tumor weight, dose: 0.8 mg/kg/injection, schedule: Q01DX011 (sc), vehicle: steriod suspending solution, higher = larger tumour) 95 % of control; (endpoint: mean tumor weight, dose: 1.6 mg/kg/injection, schedule: Q01DX011 (sc), vehicle: steriod suspending solution, higher = larger tumour) 117 % of control; (endpoint: mean tumor weight, dose: 3.25 mg/kg/injection, schedule: Q01DX011 (sc), vehicle: steriod suspending solution, higher = larger tumour) 93 % of control; (endpoint: mean tumor weight, dose: 7.5 mg/kg/injection, schedule: Q01DX011 (sc), vehicle: steriod suspending solution, higher = larger tumour) 63 % of control. Also, the T/C is, setting by setting: (endpoint: mean tumor weight, dose: 15.6 mg/kg/injection, schedule: Q01DX011 (sc), vehicle: steriod suspending solution, higher = larger tumour) 70 % of control; (endpoint: mean tumor weight, dose: 31.3 mg/kg/injection, schedule: Q01DX011 (sc), vehicle: steriod suspending solution, higher = larger tumour) 43 % of control; (endpoint: mean tumor weight, dose: 60.0 mg/kg/injection, schedule: Q01DX011 (sc), vehicle: steriod suspending solution, higher = larger tumour) 95 % of control; (endpoint: mean tumor weight, dose: 62.5 mg/kg/injection, schedule: Q01DX011 (sc), vehicle: steriod suspending solution, higher = larger tumour) 91 % of control; (endpoint: mean tumor weight, dose: 90.0 mg/kg/injection, schedule: Q01DX011 (sc), vehicle: steriod suspending solution, higher = larger tumour) 83 % of control; (endpoint: mean tumor weight, dose: 125.0 mg/kg/injection, schedule: Q01DX011 (sc), vehicle: steriod suspending solution, higher = larger tumour) 52 % of control. Besides, the T/C (endpoint: mean tumor weight, dose: 500.0 mg/kg/injection, schedule: Q01DX011 (sc), vehicle: steriod suspending solution, higher = larger tumour) was 77 % of control.
